Data: patent publication US9572862B2, “Methods for promoting lipolysis and oxidation in liver and adipose tissue using catestatin” (The Regents of the University of California, priority 2012, dated 2017)
No end group written: not given here.

Columns and labels:
Ob/Ob mice = test: CST administration to Ob/Ob mice for 16 days; type: in vivo
Protocol: FIG. 7. Effects of CST administration to DIO and Ob/Ob mice on food intake, body weight, adipose tissue weight, and lipolysis. CST (5 μg/g BW, i.p./day) or saline was administered to DIO and Ob/Ob mice for 16 days. Food intake for DIO mice (A) and Ob/Ob mice (B) was measured every other day. Percent changes in final body weight and WAT mass (as % of body weight) were determined for DIO (C) and Ob/Ob (D) mice. Plasma glycerol (E) and NEFA (F) were quantified for DIO and Ob/Ob mice at the end of CST treatment.
Adult male (7 month old) WT (31.8±1.2 g) and Chga-KO (39.2±1.5 g) mice in the mixed genetic background (129SvJ×C57BL/6) were studied. Both genotypes were generated from the original founder carrying mixed genotype (50% 129SvJ, 50% C57BL/6) and were maintained by sibling mating. Animals were kept in a 12 hr dark/light cycle and fed standard chow ad libitum. Male C57BL/6 mice, 8 week old, were fed 60% high fat diet (D12492: Research Diets, Inc., New Brunswick) for 16 weeks before using for experiments. Male leptin-deficient (C57BL/6J-Ob/Ob) mice from the Jackson Laboratory were maintained on a standard chow diet. The Institutional Animal Care and Utilization Committee approved all procedures. Chga-KO, DIO and Ob/Ob mice were treated daily with saline or CST (5 μg/g BW, i.p.; 12 days for Chga-KO mice and 16 days for DIO and Ob/Ob mice).
Mice were fasted for 12 hr prior to blood draw. Triglycerides (TG) and non-esterified fatty acids (NEFA) were assayed using kits from Wako Diagnostics (Richmond, Va.). Glycerol was assayed using a kit from Sigma (St Louis, Mo.). Media from the explant cultures and mouse serum were analysed for glycerol and NEFA as a measure of lipolysis. ELISA kits were used to determine plasma levels of leptin, adiponectin (Millipore, Billerica, Mass.) and CST (Bachem, Torrance, Calif.). For CST assay, plasma samples and reference standards were passed through mini C18 columns and the flow-through fractions were assayed. The same kits were used for measurements in culture media.

phospholipase C (PLC) = conditions: 3T3-L1 adipocytes
Protocol: FIG. 5. Regulation of adrenergic signaling by CST as measured by cAMP production, phospholipase C activity, and lipolytic glycerol release. (A) Effects of CST (100 nM, 10 min) on cAMP production in PC-12 and 3T3-L1 cells pretreated with saline or isoproterenol (ISO) (10 μM) for 10 min. (B) Effects of CST on phospholipase C activity in 3T3-L1 adipocytes pretreated with phenylephrine or epinephrine (10 μM for 10 min). (C) Effects of CST on glycerol release from adipocytes pretreated with ISO, phenylephrine (PEP), and phentolamine (PTA) (10 μM for 10 min).

SSMKLSFRARAYGFRGPGPQL [CST]
food intake (Ob/Ob mice; CST 5 μg/g BW i.p./day 16 days): started to level off | adipose tissue mass (Ob/Ob mice; CST 16 days): not reflected in any decrease in body weight or adipose tissue mass | body weight (Ob/Ob mice; CST 16 days): not reflected in any decrease in body weight | plasma concentration of NEFA (lipolysis) (Ob/Ob mice; CST 16 days): not affected | plasma concentration of glycerol (lipolysis) (Ob/Ob mice; CST 16 days): not affected | PLC activity, substance by itself (phospholipase C (PLC)): mildly stimulates PLC | PLC activation by epinephrine (phospholipase C (PLC); epinephrine 10 μM 10 min): attenuated | PLC activation by phenylephrine (phospholipase C (PLC); phenylephrine 10 μM 10 min): attenuated
